Measured values as given in patent publication US12570657B2, “Mesylate salts of heterocyclic cytokinins, compositions containing these derivatives and use thereof” (UNIVERZITA PALACKEHO V OLOMOUCI, priority 2020, dated 2026).
Counter-ions that a name gives are not always drawn.

Experiments:
[1] = system: CEM (T-lymphoblastic leukemia); assay: In vitro cytotoxicity, Calcein AM assay, CEM; format: cell-based; conditions: 3-day Calcein-AM assay
From the text: (§1) Because toxic compounds adversely affect cell metabolic processes, many standard cytotoxicity assays are based on measuring the rate of metabolism of various artificial substrates. The resulting product is then quantified, for example, by spectrometry. Assays can be easily modified for use in 96-well plates, A microtiter assay based on the quantification of Calcein AM metabolism was used to evaluate the cytotoxicity of cytokinins, for example meta-topolin, ortho-topolin, kinetin, BAP or its mesylate salts, but also a number of other cytokinin mesylate derivatives according to the invention. The test is widely used in drug screening programs and in chemosensitivity testing. In living cells, Calcein AM is enzymatically hydrolyzed and the accumulation of the resulting calcein is manifested by green fluorescence. […] These cells were maintained in standard DMEM or RPMI medium (Sigma, MO, USA) supplemented with heat-inactivated fetal bovine serum (10%) with 2 mM L-glutamine and penicillin-streptomycin (1%) under standard cell culture conditions (37° C., 5% CO2 in a humid environment) and subcultured two or three times a week using a standard trypsinization procedure. Approximately 10,000 cells in 80 μl of medium were seeded in a 96-well microtiter plate. After 12 hours of incubation, the compounds to be tested were added in 20 μl aliquots. Control cultures were treated with DMSO alone. […] After 72 hours of incubation, Calcein AM solution (Molecular Probes) was added to a final concentration of 1 μg/ml and the cells were incubated for another hour.
(§2) Cytoxicity of compounds was tested on panel of cell lines of different histogenetic and species origin.

[2] = system: MCF-7 (breast adenocarcinoma); assay: In vitro cytotoxicity, Calcein AM assay, MCF7; format: cell-based; conditions: 3-day Calcein-AM assay
From the text: as §1, §2

HOS (human osteosarcoma) = assay: In vitro cytotoxicity, Calcein AM assay, HOS; format: cell-based; conditions: 3-day Calcein-AM assay
From the text: as §1, §2

[3] = system: winter wheat leaf segments; assay: Senescence bioassay: retention of chlorophyll in excised winter wheat leaf tips; format: in vivo, Triticum aestivum cv. Hereward; conditions: for activity (%) [10^−4 mol · l^−1 BAP = 100%]: chlorophyll retention at concentration with highest activity, 10^−4 M BAP = 100%; for concentration with highest activity: chlorophyll retention, excised wheat leaf tips, 96 h dark
Method: Seeds of winter wheat, Triticum aestivum cv. Hereward, were washed under running water for 24 hours and then sown on vermiculite soaked with Knop's solution. They were placed in a growth chamber at 25° C. with a 16/8 h light/dark period at 50 μmol·m^−2·s^−1. After 7 days, the first leaf was fully developed and the second leaf had started to grow. A tip section of the first leaf, approximately 35 mm long, was removed from 5 seedlings and trimmed slightly to a combined weight of 100 mg. The basal ends of the five leaf tips were placed in the wells of a microtiter polystyrene plate containing 150 μl of each tested compound solution. The entire plate was inserted into a plastic box lined with paper tissues soaked in distilled water to prevent leaf sections from drying out. After 96 h incubation in the dark at 25° C., the leaves were removed and chlorophyll extracted by heating at 80° C. for 10 min in 5 ml of 80% ethanol (v/v). The sample volume was then restored to 5 ml by the addition of 80% ethanol (v/v). The absorbance of the extract was recorded at 665 nm. In addition, chlorophyll extracts from fresh leaves and leaf tips incubated in deionised water were measured. […] Relative activity of the compound at this concentration was calculated (Tab. 3). The activity obtained for 10^−4 M 6-benzylaminopurine (BAP) was postulated as 100%. The values shown are means of five replicates and the whole experiment was repeated twice. The tested cytokinin bases were dissolved in dimethylsulfoxide (DMSO) and the solution brought up to 10^−3 M with distilled water. Cytokinin mesylate salts which are more water-soluble (BAP mesylate, meta-topolin mesylate and kinetin mesylate) could be directly dissolved to form a 10^−3 M solution in distilled water.

[4] = system: K562 (chronic myeloid leukemia); assay: In vitro cytotoxicity, Calcein AM assay, K-562; format: cell-based; conditions: 3-day Calcein-AM assay
From the text: as §1, §2

[5] = system: cytokinin-dependent tobacco callus; assay: Tobacco callus biotest (stimulation of plant cell division); format: cell-based, Nicotiana tabacum L. cv. Wisconsin 38; conditions: for activity (%) [10^−5 mol · l^−1 BAP = 100%]: callus growth at concentration with highest activity, 10^−5 M BAP = 100%; for concentration with highest activity: tobacco callus fresh weight increase, four weeks
Method: Stimulation effect of the cytokinin mesylates was tested in tobacco callus biotest using cytokinin dependent tobacco callus. Cytokinin-dependent tobacco callus Nicotiana tabacum L. cv. […] Subcultivation was carried out every three weeks. Fourteen days before the bioassay, the callus tissue was transferred to the media without BAP. Biological activity was determined from the increase in fresh callus weight after four weeks of cultivation. Five replicates were prepared for each cytokinin concentration and the entire test was repeated twice. […] Relative activity of the compound at this concentration was calculated (Tab. 15). The activity obtained for 10^−5 M 6-benzylaminopurine (BAP) was postulated as 100%. The cytokinin bases to be tested were dissolved in dimethylsulfoxide (DMSO) and the solution brought up to 10^−3 M with distilled water. The mesylate salts were dissolved directly in distilled water.

[6] = system: HL-60 (promyelocytic, leukemia); assay: In vitro cytotoxicity, Calcein AM assay, HL60; format: cell-based; conditions: 3-day Calcein-AM assay
From the text: as §1, §2

[7] = system: Spring barley (variety Francin); assay: Field trial: grain yield and productive tillers of spring barley after foliar spray; format: in vivo; conditions: 5 uMol
Method: Spring barley (variety Francin) was treated in 2019 at the locality in Olomouc, sprayed with substances—marked BAP (benzylaminopurine), meta-topolin mesylate and BAP mesylate. The seed was 3.5 million germinating seeds, the experiment was established in 5 randomized replicates for each variant, the control was an untreated variant. The experiment was performed according to the GEP (Good Experimental Practice) methodology, the size of individual plots was 10 m^2. The application of the substances was carried out at a rate of 300 l/ha, in the growth phase BBCH 31-33 (beginning of peeling).

[8] = application BBCH 31-33, untreated control = 100

Question: How did the IC50 [1] turn out when `C/C(=C/CNc1ncnc2[nH]cnc12)CO` [cZ mesylate, (Z)-4-((9H-Purin Ylamino)-2-Methylbut-2-En-1-ol) Methanesulphonate] was run?
Answer: > 167 µM

Question: What about the IC50 [2] of the same compound?
Answer: > 167 µM

Question: Which results are given for `CS(=O)(=O)O.Clc1ccccc1CNc1ncnc2nc[nH]c12` [2ClBAP mesylate, 6-(2-chlorobenzylamino)purine mesylate]?
Answer: IC50 ([1]; mesylate): 112 µM; IC50 (HOS (human osteosarcoma); mesylate): 100 µM; IC50 ([2]; mesylate): 128 µM; activity (%) [10^−4 mol · l^−1 BAP = 100%] [3]: 122%; IC50 ([4]; mesylate): 90.4 µM; activity (%) [10^−5 mol · l^−1 BAP = 100%] [5]: 97%

Question: How did the IC50 ([1]; mesylate) turn out when `CS(=O)(=O)O.Fc1ccccc1CNc1ncnc2nc[nH]c12` [2FBAP mesylate, 6-(2-fluorobenzylamino)purine mesylate] was run?
Answer: 99.5 µM

Question: What about the IC50 ([6]; Homo sapiens, HL-60, 72 h) of the same compound?
Answer: 126 µM

Question: What about the “activity (%) [10^−4 mol · l^−1 BAP = 100%]” value [3] of the same compound?
Answer: 175%

Question: What about the IC50 ([4]; mesylate) of the same compound?
Answer: 70.7 µM

Question: And the “activity (%) [10^−5 mol · l^−1 BAP = 100%]” value [5]?
Answer: 110%

Question: What does the source list for `COc1ccccc1CNc1ncnc2nc[nH]c12.CS(=O)(=O)O` [2MeOBAP mesylate, 6-(2-methoxybenzylamino)purine mesylate]?
Answer: IC50 ([1]; mesylate): 98.2 µM; IC50 ([2]; mesylate): > 167 µM; activity (%) [10^−4 mol · l^−1 BAP = 100%] [3]: 271%; IC50 ([4]; mesylate): 117 µM; activity (%) [10^−5 mol · l^−1 BAP = 100%] [5]: 82%

Question: Which “activity (%) [10^−4 mol · l^−1 BAP = 100%]” value [3] does the source give for `Fc1ccc(CNc2ncnc3nc[nH]c23)c(F)c1` [2MBAP mesylate] here?
Answer: 157%

Question: What about the “concentration with highest activity” value [3] of the same compound?
Answer: 10^−4 mol · l^−1

Question: What about the “activity (%) [10^−5 mol · l^−1 BAP = 100%]” value [5] of the same compound?
Answer: 121%

Question: And the “concentration with highest activity” value [5]?
Answer: 10^−6 mol · l^−1

Question: Which Length of plants ([7]; application BBCH 31-33) does the source give for `CS(=O)(=O)O.Oc1cccc(CNc2ncnc3[nH]cnc23)c1` [m-topolin mesylate] here?
Answer: 83.1 cm

Question: And the “Medium tillers (number)” value ([7]; application BBCH 31-33)?
Answer: 1.25

Question: And the “Number of spikes per square meter” value ([7]; application BBCH 31-33)?
Answer: 721.6

Question: And the SUM of tillers ([7]; application BBCH 31-33)?
Answer: 5.5

Question: What about the “Strong tillers (number)” value ([7]; application BBCH 31-33) of the same compound?
Answer: 2.45

Question: And the “Weak tillers (number)” value ([7]; application BBCH 31-33)?
Answer: 1.8

Question: What about the “Grain yield (t/ha) at 14% humidity” value ([7]; application BBCH 31-33, spring barley) of the same compound?
Answer: 8.01 t/ha

Question: And the “Grain yield, % compared to control” value [7, 8]?
Answer: 108.03%

Question: And the “Length of plants, % compared to control” value [7, 8]?
Answer: 100.36%

Question: What about the “Medium tillers, % compared to control” value [7, 8] of the same compound?
Answer: 59.52%

Question: What about the “Number of spikes per square meter, % compared to control” value [7, 8] of the same compound?
Answer: 106.62%

Question: And the “SUM of tillers, % compared to control” value [7, 8]?
Answer: 95.65%

Question: And the “Strong tillers, % compared to control” value [7, 8]?
Answer: 136.11%

Question: And the “Weak tillers, % compared to control” value [7, 8]?
Answer: 97.3%

Question: Which “activity (%) [10^−4 mol · l^−1 BAP = 100%]” value [3] does the source give for `Fc1ccc(CNc2ncnc3nc[nH]c23)c(F)c1` [6-(2.4-difluorobenzylamino)purine (2.4diFBAP)] here?
Answer: 139%

Question: What about the “concentration with highest activity” value [3] of the same compound?
Answer: 10^−5 mol · l^−1

Question: What does the source list for `Clc1ccc(CNc2ncnc3nc[nH]c23)cc1` [4ClBAP]?
Answer: IC50 [1]: > 167 µM; IC50 [6]: > 167 µM; IC50 (HOS (human osteosarcoma)): > 167 µM; IC50 [2]: > 167 µM; IC50 [4]: > 167 µM

Question: Which IC50 [1] does the source give for `CC(CO)CCNc1ncnc2[nH]cnc12.CS(=O)(=O)O` (racemic) [DHZ mesylate, (RS)-4-((9H-Purin Ylamino)-2-Methylbutan-1-ol) Methanesulphonate] here?
Answer: > 167 µM

Question: What about the IC50 [2] of the same compound?
Answer: > 167 µM

Question: What about the “activity (%) [10^−4 mol · l^−1 BAP = 100%]” value [3] of the same compound?
Answer: 82%

Question: And the “concentration with highest activity” value [3]?
Answer: 10^−4 mol · l^−1

Question: What about the IC50 [4] of the same compound?
Answer: > 167 µM

Question: And the “activity (%) [10^−5 mol · l^−1 BAP = 100%]” value [5]?
Answer: 78%

Question: What about the “concentration with highest activity” value [5] of the same compound?
Answer: 10^−6 mol · l^−1

Question: What does the source list for `CS(=O)(=O)O.Fc1ccc(CNc2ncnc3nc[nH]c23)cc1` [4FBAP mesylate, 6-(4-fluorobenzylamino)purine mesylate]?
Answer: activity (%) [10^−4 mol · l^−1 BAP = 100%] [3]: 98%; activity (%) [10^−5 mol · l^−1 BAP = 100%] [5]: 126%

Question: Which results are given for `CC(CO)CCNc1ncnc2nc[nH]c12` (racemic) [Dihydrozeatin (DHZ), dihydrozeatin]?
Answer: IC50 ([1]; 72 h): > 167 µM; IC50 ([6]; Homo sapiens, HL-60, 72 h): > 167 µM; IC50 (HOS (human osteosarcoma); Homo sapiens, 72 h): > 167 µM; IC50 ([2]; Homo sapiens, MCF7, 72 h): > 167 µM; activity (%) [10^−4 mol · l^−1 BAP = 100%] [3]: 81%; IC50 ([4]; Homo sapiens, K562, 72 h): > 167 µM; activity (%) [10^−5 mol · l^−1 BAP = 100%] [5]: 78%
